Publication PMC4801998 (2016)
Each block holds one compound with its values, some of them ahead of it.

What was measured:
[1] = test system: Tel22 (DNA, G4) AGGGTTAGGGTTAGGGTTAGGG; assay: UV-Vis titration, direct fit; settings: 5 mM KCl, 95 mM LiCl, 10 mM lithium cacodylate, stoichiometry fixed, equivalent sites
[2] = test system: F21D (DNA, G4) GGGTTAGGGTTAGGGTTAGGG; assay: FRET melting; settings: 5 mM KCl, 95 mM LiCl; 10 mM lithium cacodylate, pH 7.2; 0.4 µM ligand, 0.2 µM F21D
[3] = test system: 17AB (DNA, duplex) CCAGTTCGTAGTAACCC/GGGTTACTACGAACTGG; assay: fluorescence light-switch, plate reader; settings: 5 mM KCl, 95 mM LiCl; 10 mM lithium cacodylate, pH 7.2, 25 °C; about 0.1 µM PtTMPyP4, DNA:porphyrin 50:1; intensity ratio, not affinity
[4] = test system: 17B (DNA, single strand) GGGTTACTACGAACTGG; assay: fluorescence light-switch, plate reader; settings: 5 mM KCl, 95 mM LiCl; 10 mM lithium cacodylate, pH 7.2, 25 °C; about 0.1 µM PtTMPyP4, DNA:porphyrin 50:1; intensity ratio, not affinity
[5] = test system: Tel22 (DNA, G4) AGGGTTAGGGTTAGGGTTAGGG; assay: fluorescence light-switch, plate reader; settings: 10 mM lithium cacodylate, pH 7.2, 25 °C, about 0.1 µM PtTMPyP4, DNA:porphyrin 50:1, intensity ratio, not affinity
[6] = test system: G4T4G4 (DNA, G4) GGGGTTTTGGGG; assay: fluorescence light-switch, plate reader; settings: 10 mM lithium cacodylate, pH 7.2, 25 °C, about 0.1 µM PtTMPyP4, DNA:porphyrin 50:1, intensity ratio, not affinity
[7] = test system: Bcl-2 (DNA, G4) GGGCGCGGGAGGGAATTGGGCGGG; assay: fluorescence light-switch, plate reader; settings: 5 mM KCl, 95 mM LiCl; 10 mM lithium cacodylate, pH 7.2, 25 °C; about 0.1 µM PtTMPyP4, DNA:porphyrin 50:1; intensity ratio, not affinity
[8] = test system: Tel22 (DNA, G4) AGGGTTAGGGTTAGGGTTAGGG; assay: fluorescence titration, direct fit; settings: 5 mM KCl, 95 mM LiCl; 10 mM lithium cacodylate, pH 7.2, 20 °C; 1.7-2.0 µM PtTMPyP4; equivalent sites
[9] = test system: G4TERT (DNA, G4) AGGGGAGGGGCTGGGAGGGC; assay: fluorescence light-switch, plate reader; settings: 5 mM KCl, 95 mM LiCl; 10 mM lithium cacodylate, pH 7.2, 25 °C; about 0.1 µM PtTMPyP4, DNA:porphyrin 50:1; intensity ratio, not affinity
[10] = test system: VEGF (DNA, G4) GGGAGGGTTGGGGTGGG; assay: fluorescence light-switch, plate reader; settings: 5 mM KCl, 95 mM LiCl; 10 mM lithium cacodylate, pH 7.2, 25 °C; about 0.1 µM PtTMPyP4, DNA:porphyrin 50:1; intensity ratio, not affinity
[11] = test system: TBA (DNA, G4) GGTTGGTGTGGTTGG; assay: fluorescence light-switch, plate reader; settings: 10 mM lithium cacodylate, pH 7.2, 25 °C, about 0.1 µM PtTMPyP4, DNA:porphyrin 50:1, intensity ratio, not affinity
[12] = test system: cMyc (DNA, G4) TGAGGGTGGGTAGGGTGGGTAA; assay: fluorescence light-switch, plate reader; settings: 5 mM KCl, 95 mM LiCl; 10 mM lithium cacodylate, pH 7.2, 25 °C; about 0.1 µM PtTMPyP4, DNA:porphyrin 50:1; intensity ratio, not affinity
[13] = test system: ds26 (DNA, duplex) CAATCGGATCGAATTCGATCCGATTG; assay: fluorescence light-switch, plate reader; settings: 5 mM KCl, 95 mM LiCl; 10 mM lithium cacodylate, pH 7.2, 25 °C; about 0.1 µM PtTMPyP4, DNA:porphyrin 50:1; intensity ratio, not affinity
[14] = test system: 17A (DNA, single strand) CCAGTTCGTAGTAACCC; assay: fluorescence light-switch, plate reader; settings: 5 mM KCl, 95 mM LiCl; 10 mM lithium cacodylate, pH 7.2, 25 °C; about 0.1 µM PtTMPyP4, DNA:porphyrin 50:1; intensity ratio, not affinity
[15] = test system: 26TelG4 (DNA, G4) AGGGGTTAGGGGTTAGGGGTTAGGGG; assay: fluorescence light-switch, plate reader; settings: 10 mM lithium cacodylate, pH 7.2, 25 °C, about 0.1 µM PtTMPyP4, DNA:porphyrin 50:1, intensity ratio, not affinity
[16] = test system: cKit1 (DNA, G4) GGGAGGGCGCTGGGAGGAGGG; assay: fluorescence light-switch, plate reader; settings: 5 mM KCl, 95 mM LiCl; 10 mM lithium cacodylate, pH 7.2, 25 °C; about 0.1 µM PtTMPyP4, DNA:porphyrin 50:1; intensity ratio, not affinity

binding affinity ([1]; pH 7.2): (1.0 ± 0.3) × 10^7 M^-1 | ΔTm [2]: 30.9 ± 0.4 °C
SMILES: C[n+]1ccc(-c2c3nc(c(-c4cc[n+](C)cc4)c4ccc([n-]4)c(-c4cc[n+](C)cc4)c4nc(c(-c5cc[n+](C)cc5)c5ccc2[n-]5)C=C4)C=C3)cc1.[Pd+2]

Fluorescence enhancement [3]: 46.0 ± 0.7 | Fluorescence enhancement [4]: 43.9 ± 3.0 | Fluorescence enhancement ([5]; 5 mM KCl, 95 mM LiCl): 71.8 ± 10 | Fluorescence enhancement ([5]; 50 mM NaCl, 50 mM LiCl): 54.2 ± 14.6 | Fluorescence enhancement ([6]; 5 mM KCl, 95 mM LiCl): 42.2 ± 9.2 | Fluorescence enhancement ([6]; 50 mM NaCl, 50 mM LiCl): 40.5 ± 12 | Fluorescence enhancement [7]: 39.2 ± 5.7 | binding constant [8]: (1.8 ± 0.3) × 10^6 M^-1 | Fluorescence enhancement [9]: 85.7 ± 0.9 | Fluorescence enhancement [10]: 76.9 ± 3.8 | Fluorescence enhancement ([11]; 5 mM KCl, 95 mM LiCl): 29.5 ± 5.4 | Fluorescence enhancement ([11]; 50 mM NaCl, 50 mM LiCl): 32.6 ± 6.8 | Fluorescence enhancement [12]: 28.0 ± 5.0 | binding affinity ([1]; pH 7.2, 20 °C): (5.8 ± 0.8) × 10^6 M^-1 | ΔTm [2]: 30.7 ± 0.6 °C | Fluorescence enhancement [13]: 39.1 ± 5.2 | Fluorescence enhancement [14]: 38.1 ± 1.5 | Fluorescence enhancement ([15]; 5 mM KCl, 95 mM LiCl): 65.4 ± 4.8 | Fluorescence enhancement ([15]; 50 mM NaCl, 50 mM LiCl): 54.1 ± 15 | Fluorescence enhancement [16]: 28.0 ± 5.6
SMILES: C[n+]1ccc(-c2c3nc(c(-c4cc[n+](C)cc4)c4ccc([n-]4)c(-c4cc[n+](C)cc4)c4nc(c(-c5cc[n+](C)cc5)c5ccc2[n-]5)C=C4)C=C3)cc1.[Pt+2]
